Assay results: patent US10570184B2, “GLP-1/glucagon receptor co-agonists for medical use” (Novo Nordisk A/S, priority 2014, dated 2020)
Starred links: 1 amine or outer side, 2 acyl side, 3 side chain; linkers in the order of their positions; H or OH if unused. Non-standard residues stand in square brackets, D forms with d. Residues, ends and D or L forms follow the SMILES beside them. Groups on a side chain read outwards from the residue. *: point of attachment. C18 diacid = O=C(O)CCCCCCCCCCCCCCCCC(=O)*; γGlu = O=C(O)[C@H](CCC(=O)[*:2])N[*:1]; AEEA = NCCOCCOCC(=O)O; Aib = CC(C)(N)C(=O)O

Columns and labels:
[1] = Assay (III) ThT fibrillation assay for physical stability; format: physicochemical; conditions: 250 μM in 10 mM HEPES buffer, 37° C., shaking 960 rpm
Text: The purpose of this assay is to assess the physical stability of the glucagon derivatives of the invention in aqueous solutions. Low physical stability of a peptide may lead to amyloid fibril formation, which is observed as well-ordered, thread-like macromolecular structures in the sample, which eventually may lead to gel formation. This has traditionally been measured by visual inspection of the sample. However, that kind of measurement is very subjective and depending on the observer. Therefore, the application of a small molecule indicator probe is much more advantageous. Thioflavin T (ThT) is such a probe and has a distinct fluorescence signature when binding to fibrils [Naiki et al. (1989) Anal. Biochem. 177, 244-249; LeVine (1999) Methods. Enzymol. 309, 274-284]. […] The constant t0 is the time needed to reach 50% of maximum fluorescence. The two important parameters describing fibril formation are the lag-time calculated by t0−2τ and the apparent rate constant kapp 1/τ. Samples were prepared freshly before each assay. Each sample composition is described in the legends. The pH of the sample was adjusted to the desired value using appropriate amounts of concentrated NaOH and HCl. Thioflavin T was added to the samples from a stock solution in H2O to a final concentration of 1 μM. Sample aliquots of 200 μl (250 μM of the glucagon derivative in 10 mM HEPES buffer, pH 7.5) were placed in a 96 well microtiter plate (Packard OptiPlate™-96, white polystyrene). Usually, four or eight replica of each sample (corresponding to one test condition) were placed in one column of wells. The plate was sealed with Scotch Pad (Qiagen). Incubation at given temperature, shaking and measurement of the ThT fluorescence emission were done in a Fluoroskan Ascent FL fluorescence platereader (Thermo Labsystems). The temperature was adjusted to 37° C. The plate was incubated with orbital shaking adjusted to 960 rpm with an amplitude of 1 mm. Fluorescence measurement was done using excitation through a 444 nm filter and measurement of emission through a 485 nm filter. Each run was initiated by incubating the plate at the assay temperature for 10 min. The plate was measured every 20 minutes for a desired period of time. Between each measurement, the plate was shaken and heated as described. After completion of the ThT assay the four or eight replica of each sample was pooled and centrifuged at 20000 rpm for 30 minutes at 18° C. The supernatant was filtered through a 0.22 μm filter and an aliquot was transferred to a HPLC vial. The concentration of peptide in the initial sample and in the filtered supernatant was determined by reverse phase HPLC using an appropriate standard as reference. The percentage fraction the concentration of the filtered sample constituted of the initial sample concentration was reported as the recovery. The measurement points were saved in Microsoft Excel format for further processing and curve drawing and fitting was performed using GraphPad Prism. The background emission from ThT in the absence of fibrils was negligible. The data points are typically a mean of four or eight samples and shown with standard deviation error bars. Only data obtained in the same experiment (i.e. samples on the same plate) are presented in the same graph ensuring a relative measure of fibrillation between experiments. The data set may be fitted to Eq. (1).

human GLP-1 receptor [2] = molecular target: T1, human GLP-1 receptor (Homo sapiens, UniProt P43220); assay: Assay (II)(a) GLP-1 receptor binding, 125I-GLP-1 displacement SPA on BHK membranes; conditions: without presence of serum albumin; read-out: GLP-1R IC50 (nM) [Assay (II)(a)]
T1 construct: expressed in transfected cells; host or cells: membranes of BHK cells (parent BHKTS13), clone FCW467-12A
T1 sequence (P43220 24-463): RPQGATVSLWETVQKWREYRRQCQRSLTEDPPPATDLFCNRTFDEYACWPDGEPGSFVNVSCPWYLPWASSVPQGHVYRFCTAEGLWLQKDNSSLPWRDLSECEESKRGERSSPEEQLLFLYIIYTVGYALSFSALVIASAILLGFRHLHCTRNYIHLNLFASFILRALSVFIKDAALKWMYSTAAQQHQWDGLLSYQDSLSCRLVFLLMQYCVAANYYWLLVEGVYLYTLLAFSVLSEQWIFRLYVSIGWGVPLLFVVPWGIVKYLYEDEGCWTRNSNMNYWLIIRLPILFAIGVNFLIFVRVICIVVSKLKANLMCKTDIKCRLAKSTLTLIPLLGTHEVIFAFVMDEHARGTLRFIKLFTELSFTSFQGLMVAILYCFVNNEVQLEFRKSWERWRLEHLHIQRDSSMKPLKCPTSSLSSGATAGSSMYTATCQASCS
Method in brief: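 Membranes from BHK cells (clone FCW467-12A) stably expressing human GLP-1R were incubated with serially diluted compounds (8×10EE-13 to 8×10EE-7 M before addition) and [125I]-GLP-1-(7-36)NH2 with WGA SPA beads, 2 h at 30° C, pH 7.4. IC50 taken from displacement by non-linear regression. Run at ≤0.001% or 2.0% final serum albumin.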

human GLP-1 receptor [3] = molecular target: T1, human GLP-1 receptor; assay: Assay (I)(a) GLP-1 receptor activation, CRE luciferase reporter gene assay in BHK cells; format: cell-based; conditions: without presence of serum albumin; read-out: GLP-1R EC50 (pM) [Assay (I)(a)]
Protocol: The purpose of this example was to test the activity or potency, of the glucagon derivatives of the invention, in vitro. The in vitro potency is the measure of human GLP-1 receptor (GLP-1R) or glucagon receptor (glucagonR) activation, respectively, in a whole cell assay. In vitro potency was determined by measuring the response of human GLP-1 or glucagon receptor, respectively, in a reporter gene assay. The assay was performed in a stably transfected BHK cell line that expresses either the human GLP-1 receptor or the human glucagon receptor and contains the DNA for the cAMP response element (CRE) coupled to a promoter and the gene for firefly luciferase (CRE luciferase). […] When assay incubation was completed, the luciferase substrate (luciferin) was added and the enzyme converted luciferin to oxyluciferin and produces bioluminescence. The luminescence was measured as the readout for the assay. The cells used in this assay (clone FCW467-12A/KZ10-1) were BHK cells with BHKTS13 as a parent cell line. The cells were derived from a clone (FCW467-12A) that expresses the human GLP-1 receptor and were established by further transfection with CRE luciferase to obtain the current clone. The cells were cultured at 5% CO2 in DMEM medium with 10% FBS, 1×GlutaMAX, 1 mg/ml G418, 240 nM MTX (methotrexate) and 1% pen/strep (penicillin/streptomycin). They were aliquoted and stored in liquid nitrogen. Before each assay, an aliquot was taken up and washed three times in PBS before being suspended at the desired concentration in assay medium. For 96-well plates the suspension was made to give a final concentration of 5×10EE3 cells/well. The following chemicals were used in the assay: Pluronic F-68 (10%) (Gibco 2404), ovalbumin (Sigma A5503), DMEM w/o phenol red (Gibco 11880-028), 1 M Hepes (Gibco 15630), Glutamax 100× (Gibco 35050) and steadylite plus (PerkinElmer 6016757). Assay Medium consisted of DMEM w/o phenol red, 10 mM Hepes, 1× GlutaMAX, 2% Ovalbumin and 0.2% Pluronic F-68. Cell stocks were thawed in a 37° C. water bath. Cells were washed three times in PBS. The cells were counted and adjusted to 5×10EE3 cells/50 μl (1×10EE5 cells/ml) in Assay Medium. A 50 μl aliquot of cells was transferred to each well in the assay plate. Stocks of the test compounds and reference compounds were diluted to a concentration of […] in Assay Medium. Compounds were diluted 10-fold to give the following concentrations: 2×10EE-6 M, 2×10EE-7 M, 2×10EE-8 M; 2×10EE-9 M, 2×10EE-10 M, 2×10EE-11 M, 2×10EE-12 M and 2×10EE-13 M. For each compound a blank assay medium control was also included. A 50 μl aliquot of compound or blank was transferred from the dilution plate to the assay plate. Compounds were tested at the following final concentrations: 1×10EE-6 M, 1×10EE-7 M, 1×10EE-8 M; 1×10EE-9 M, 1×10EE-10 M, 1×10EE-11 M and 1×10EE-12 M and 1×10EE-13 M. The assay plate was incubated for 3 h in a 5% CO2 incubator at 37° C. The assay plate was removed from the incubator and allowed to stand at room temperature for 15 min. A 100 μl aliquot of steadylite plus reagent was added to each well of the assay plate (reagent is light sensitive). Each assay plate was covered with aluminum foil to protect it from light and shaken for 30 min at room temperature. Each assay plate was read in a Perkin Elmer TopCount NXT instrument. The data from the TopCount instrument was transferred to GraphPad Prism software. The software performed a non-linear regression (log(agonist) vs response-Variable slope (four parameter)). EC50 values were calculated by the software and reported in pM.

SMILES	ThT Assay Lag time (h) [Assay (III), pH 7.5] [1] [h]	IC50 (human GLP-1 receptor [2]) [nM]	EC50 (human GLP-1 receptor [3]) [pM]
CC[C@H](C)[C@H](NC(=O)[C@H](CC(C)C)NC(=O)[C@H](Cc1c[nH]c2ccccc12)NC(=O)[C@H](CCC(N)=O)NC(=O)[C@@H](NC(=O)[C@H](Cc1ccccc1)NC(=O)[C@H](CC(=O)O)NC(=O)[C@H](CCCNC(=N)N)NC(=O)[C@H](C)NC(=O)[C@H](CCCNC(=N)N)NC(=O)[C@H](CCCNC(=N)N)NC(=O)[C@H](CC(C)C)NC(=O)[C@H](CC(=O)O)NC(=O)[C@H](CC(C)C)NC(=O)[C@H](Cc1ccc(O)cc1)NC(=O)[C@H](CCCCN)NC(=O)[C@H](CO)NC(=O)[C@H](CC(C)C)NC(=O)[C@H](CC(=O)O)NC(=O)[C@H](CO)NC(=O)[C@@H](NC(=O)[C@H](Cc1ccccc1)NC(=O)[C@@H](NC(=O)CNC(=O)[C@H](CCC(N)=O)NC(=O)C(C)(C)NC(=O)[C@@H](N)Cc1c[nH]cn1)[C@@H](C)O)[C@@H](C)O)C(C)C)C(=O)N[C@@H](CO)C(=O)N[C@@H](CCCCNC(=O)CC[C@H](NC(=O)CC[C@H](NC(=O)COCCOCCNC(=O)COCCOCCNC(=O)CC[C@H](NC(=O)CCCCCCCCCCCCCCCCC(=O)O)C(=O)O)C(=O)O)C(=O)O)C(N)=O [Chem. 29, N^ε29-[(4S)-4-carboxy-4-[[(4S)-4-carboxy-4-[[2-[2-[2-[[2-[2-[2-[[(4S)-4-carboxy-4-(17-carboxyheptadecanoylamino)butanoyl]amino]ethoxy]ethoxy]acetyl]amino]ethoxy]ethoxy]acetyl]amino]butanoyl]amino]butanoyl]-[Aib2,Leu10,Leu16,Arg20,Ile27,Ser28,Lys29]-Glucagon amide] (H-H[Aib]QGTFTSDLSKYLDLRRARDFVQWLISK([γGlu-γGlu-AEEA-AEEA-γGlu-C18 diacid])-NH2; N-terminus assumed)	45.0		
CC[C@H](C)[C@H](NC(=O)[C@H](CC(C)C)NC(=O)[C@H](Cc1c[nH]c2ccccc12)NC(=O)[C@H](CCC(N)=O)NC(=O)[C@@H](NC(=O)[C@H](Cc1ccccc1)NC(=O)[C@H](CC(=O)O)NC(=O)[C@H](CCC(N)=O)NC(=O)[C@H](C)NC(=O)[C@H](CCCNC(=N)N)NC(=O)[C@H](CCCNC(=N)N)NC(=O)[C@H](CO)NC(=O)[C@H](CCC(=O)O)NC(=O)[C@H](CC(C)C)NC(=O)[C@H](Cc1ccc(O)cc1)NC(=O)[C@H](CCCCN)NC(=O)[C@H](CO)NC(=O)[C@@H](NC(=O)[C@H](CC(=O)O)NC(=O)[C@H](CO)NC(=O)[C@@H](NC(=O)[C@H](Cc1ccccc1)NC(=O)[C@@H](NC(=O)CNC(=O)[C@H](CCC(N)=O)NC(=O)C(C)(C)NC(=O)[C@@H](N)Cc1c[nH]cn1)[C@@H](C)O)[C@@H](C)O)C(C)C)C(C)C)C(=O)N[C@@H](CCCCNC(=O)COCCOCCNC(=O)COCCOCCNC(=O)CC[C@H](NC(=O)CC[C@H](NC(=O)CC[C@H](NC(=O)CCCCCCCCCCCCCCCCC(=O)O)C(=O)O)C(=O)O)C(=O)O)C(=O)N[C@H](C(N)=O)[C@@H](C)O [Chem. 10, N^ε28-[2-[2-[2-[[2-[2-[2-[[(4S)-4-carboxy-4-[[(4S)-4-carboxy-4-[[(4S)-4-carboxy-4-(17-carboxyheptadecanoylamino)butanoyl]amino]butanoyl]amino]butanoyl]amino]ethoxy]ethoxy]acetyl]amino]ethoxy]ethoxy]acetyl]-[Aib2,Val10,Glu15,Ile27,Lys28]-Glucagon amide] (H-H[Aib]QGTFTSDVSKYLESRRAQDFVQWLIK([AEEA-AEEA-γGlu-γGlu-γGlu-C18 diacid])T-NH2)		0.1	3
CC[C@H](C)[C@H](NC(=O)[C@H](CC(C)C)NC(=O)[C@H](Cc1c[nH]c2ccccc12)NC(=O)[C@H](CCC(N)=O)NC(=O)[C@@H](NC(=O)[C@H](Cc1ccccc1)NC(=O)[C@H](CC(=O)O)NC(=O)[C@H](CCCNC(=N)N)NC(=O)[C@H](C)NC(=O)[C@H](CCCNC(=N)N)NC(=O)[C@H](CCCNC(=N)N)NC(=O)[C@H](C)NC(=O)[C@H](CC(=O)O)NC(=O)[C@H](CC(C)C)NC(=O)[C@H](Cc1ccc(O)cc1)NC(=O)[C@H](CCCNC(=N)N)NC(=O)[C@H](CO)NC(=O)[C@H](CC(C)C)NC(=O)[C@H](CC(=O)O)NC(=O)[C@H](CO)NC(=O)[C@@H](NC(=O)[C@H](Cc1ccccc1)NC(=O)[C@@H](NC(=O)CNC(=O)[C@H](CCC(N)=O)NC(=O)C(C)(C)NC(=O)[C@@H](N)Cc1c[nH]cn1)[C@@H](C)O)[C@@H](C)O)C(C)C)C(=O)N[C@@H](CCCCNC(=O)CC[C@H](NC(=O)CC[C@H](NC(=O)CC[C@H](NC(=O)CCCCCCCCCCCCCCCCC(=O)O)C(=O)O)C(=O)O)C(=O)O)C(=O)N[C@H](C(N)=O)[C@@H](C)O [Chem. 14, N^ε28-[(4S)-4-carboxy-4-[[(4S)-4-carboxy-4-[[(4S)-4-carboxy-4-(17-carboxyheptadecanoylamino)butanoyl]amino]butanoyl]amino]butanoyl]-[Aib2,Leu10,Arg12,Ala16,Arg20,Ile27,Lys28]-Glucagon amide] (HELM PEPTIDE1{H.[Aib].Q.G.T.F.T.S.D.L.S.R.Y.L.D.A.R.R.A.R.D.F.V.Q.W.L.I.K.T.[am]}|PEPTIDE2{[O=C(O)CCCCCCCCCCCCCCCCC(=O)[*:2]].[gGlu].[gGlu].[gGlu]}$PEPTIDE1,PEPTIDE2,28:R3-4:R2$$$V2.0)		0.1	2
